Entries after “also recorded” stand apart in the source; their conditions may differ. Positions of bridges follow the written chain, without caps; N, C: chain ends. Non-standard residues stand in square brackets, D forms with d. Residues, ends and D or L forms follow the SMILES beside them. Chains are numbered I, II in the order given. Gly(N-piperonyl) = O=C(O)CNCc1ccc2c(c1)OCO2; N(4-MeOBn)Gly = COc1ccc(CNCC(=O)O)cc1; Nrpe = C[C@@H](NCC(=O)O)c1ccccc1; Nlys = NCCCCNCC(=O)O
Columns and labels:
[1] = In vitro cellular activity of PS targeted peptoid derivatives; format: cell-based
Text: Peptoid compounds include but are not limited to PPS1D1 (FIG. 15), PPS1-DE2 (FIG. 16), PPS1-RD1 (FIG. 17), PPS1-2P3H (FIG. 18), PPS1-4P3H (FIG. 19), PPS1-Tri-1 (FIG. 20), PPS1-Tet-1 (FIG. 21), and PPS2D1 (FIG. 22). […] PPS1D1 has a validated in vivo animal tumor burden activity.

[2] = test system: HCC4017, H460, H358, H441, H1819, H1993, H2122, MD-MB-231 and PC3 cells; experiment: In vitro cancer cell killing (MTS cell viability assays and FACS studies); format: cell-based, human; settings: lung, breast and prostate cancer cells
Text: Various derivatives of PPS1 have been developed that have similar and improved activities. FIGS. 15-22, 36-51.

[3] = Membrane lipid array (lipid dot blot); format: binding
Protocol: (FIGS. 11A and 11B). […] All of the bound lipids PS, PA, PI and PG have an overall negative charge as compared to unbound PC, PE and SM, which are neutral. This extra negative charge is responsible for interacting with positively charged region of PPS1, while the hydrophobic regions of both PPS1 and lipids may interact through van der Waals forces. […] The membrane was first blocked with 3% BSA in TBS-T for 1 hr. After washing with TBS-T, 2.5 μg/ml of biotin labeled PPS1D1 was added. Binding of biotin-PPS1D1 was detected by immunoblotting with streptavidin-HRP antibody. […] The binding affinity of PPS1D1 to PS appears to be strongest among all phospholipids as even at low lipid concentrations, PPS1D1 efficiently binds to it. (FIG. 11D). […] It is well documented that these phospholipids are predominantly present in the inner leaflet in normal cells. […] PC, PE, SM and PS are the most abundant phospholipids. Among these, only PS is an anionic phospholipid. PC and SM are present mostly in the outer leaflet, whereas PE and PS occupy most of inner leaflet with a variety of other anionic phospholipids. However, in stress conditions and in most tumor studied to date, PS and PE flip to the outer leaflet. PPS1D1 has six positively charged residues along with a hydrophobic region. […] However the binding affinity of PPSD1 to these anionic phospholipids is different. […] PPS1D1 could have a structure beyond a simple linear sequence contributing various levels of binding to PS, PA, PI and PG, maintaining highest binding affinity to PS.
Membrane lipid array: Membrane lipid arrays were purchased from Echelon Biosciences. Membranes were blocked in 3% BSA in TBS-T for one hour then incubated with 2.5 μg/ml of biotin-PPS1D1 for two hours. After washing unbound peptoid using TBS-T, bound biotin-PPS1D1 was detected by immunoblotting with Streptavidin-HRP antibody at 1:750 dilution (BioLegend).
(§1) One of the major questions arising at this point is how PPS1 or PPS1D1 specifically recognizes PS over PC, as both lipids have negatively charged phosphate head groups. To address this specificity concern, ELISA-like binding assay were expanded to include other membrane phospholipids such as phosphatidylethanolamine (PE), sphingomyelin (SM), phosphatidic acid (PA), phosphatidylinositol (PI) and phosphatidylglycerol (PG). […] This additional negative charge can be responsible for the interaction with the positively charged region of PPS1 or PPS1D1, while the hydrophobic regions of PPS1 or PPS1D1 may interact with hydrophobic tail groups of the lipids through van der Waals forces. […] The membrane was treated with biotin labeled PPS1D1 and binding was detected by immunoblotting with streptavidin-HRP. […] It has been reported that PS can form a bilayer lamellar and reverse hexagonal phase. PS is mainly in a lamellar phase after hydration at physiological pH. By validating our binding through an ELISA-like assay and liposomes, PPS1D1 has an equal opportunity to bind to each phase of PS.
Membrane lipid arrays were purchased from Echelon Biosciences, UT. Membranes were blocked in 3% BSA in TBST for 1 hour and then incubated with 2.5 μg/ml of biotin-PPS1D1 for 2 hours. Membranes were washed with TBST and incubated with Streptavidin-HRP antibody at 1:750 dilutions (BioLegend,CA). After washing, signal was detected with ECL western blotting substrate (Life technologies, CA) using Fluorchem 8900 (Alpha Innotech Imaging system).

[4] = Lipid ELISA-like binding assay
Text: Structural features of PPS1and PS were compared to determine why PPS1 preferred PS over PC. PPS1 has three positive charged residues aligned together and a hydrophobic region with four consecutive aromatic rings (FIG. 9A). This can perfectly form both electrostatic and hydrophobic interactions with opposing negatively charged PS head groups and its hydrophobic tail regions.
as §1
Lipids (Avanti Polar Lipids) were dissolved in hexane at 10 μg/ml and coated on to Immulon 1B “U” bottom microtiter plates (ThermoFisher, MA). Hexane was evaporated at room temp (in the hood) and the plates were blocked with 200 μl of 1% BSA in PBS for 1 hour. Plates were washed with 3× PBS. […] Plates were washed with 5× PBS and binding was detected with streptavidin-HRP (1:2000 in blocking buffer) followed by 100 μl OPD (Sigma-Aldrich). The reaction was stopped with 100 μl 0.18M H2SO4 and absorbance was read at 490 nm using the spectrophotometer (Spectramax i3, Molecular Devices, CA).

[5] = 2.5 μg/ml biotin labeled PPS1D1
[6] = 2.5 μg/ml biotin labeled PPS1D1, listed as PPSD1

## COc1ccc(CN(CC(=O)N(CCCCN)CC(=O)N[C@@H](CCCCN)C(=O)N[C@H](CCCCN)C(=O)N[C@@H](CCSC)C(=O)NCCCC[C@H](NC(=O)[C@H](CCSC)NC(=O)[C@@H](CCCCN)NC(=O)[C@H](CCCCN)NC(=O)CN(CCCCN)C(=O)CN(Cc2ccc(OC)cc2)C(=O)CN(C(=O)CN(Cc2ccc3c(c2)OCO3)C(=O)CN[C@H](C)c2ccccc2)[C@H](C)c2ccccc2)C(N)=O)C(=O)CN(C(=O)CN(Cc2ccc3c(c2)OCO3)C(=O)CN[C@H](C)c2ccccc2)[C@H](C)c2ccccc2)cc1 [PPS1D1] (I: H-[Nrpe][Gly(N-piperonyl)][Nrpe][N(4-MeOBn)Gly][Nlys]K[dK]MK-NH2 / II: H-[Nrpe][Gly(N-piperonyl)][Nrpe][N(4-MeOBn)Gly][Nlys]K[dK]M; amide I:9-II:C; N-terminus assumed)
[1]
  in vitro cellular activity: validated in vitro cellular activity
[2]
  in vitro cancer cell killing activity: strong in vitro cancer cell killing activity
[3]; [5]
  binding to DAG: did not show binding; also recorded: does not bind
  binding to PA: a little weaker binding
  binding to PC: does not bind
  binding to PE: does not bind
  binding to PG: weaker binding
  binding to PI: weaker binding
  binding to PS: strongest binding affinity
  binding to SM: does not bind
[3]; [6]
  binding to PC: clearly not binding
  binding to PE: clearly not binding
  binding to PG: very weak level
  binding to PI: very weak level
  binding to SM: clearly not binding
[4]
  binding to PA: displayed binding
  binding to PG: displayed binding
  binding to PI: displayed binding

— patent US10849875B2, “Cancer specific lipid targeted peptidomimetics” (University of Houston System, priority 2015, dated 2020)
